Earlier results in patent publication US12193458B2, “Sweetening composition and preparation method and use thereof” (HUNAN NUTRAMAX INC., priority 2019, dated 2025).

Legend:
[1] = component of Rubus suavissimus S. Lee
[2] = pH value of 3 to 12, heated, under light irradiation

decomposition when heated in a water solution [2] | Compound | taste [1]
 | Suavioside D2 | bitter taste
 | Suavioside I | sweet taste
 | C=C1C[C@@]23CC[C@H]4[C@@](C)(CCC[C@@]4(C)C(=O)O)[C@@H]2CC[C@]1(O[C@@H]1O[C@H](CO)[C@@H](O)[C@H](O)[C@H]1O)C3 [Steviolmonoside] | sweet taste
 | Suavioside J | sweet taste
 | C[C@@]12CCC[C@@](C)(C(=O)O[C@@H]3O[C@H](CO)[C@@H](O)[C@H](O)[C@H]3O)[C@H]1CC[C@@]13C[C@@H](CC[C@H]12)[C@@](O)(CO)C3 [Paniculoside IV] | tasteless
 | Suavioside B | sweet taste
 | CC1(C)C(=O)CCC2(C)C3CCC4CC3(CCC12)CC4(O)COC1OC(CO)C(O)C(O)C1O (stereo not shown) [Sugereoside] | bitter taste
will not decompose significantly | C=C1C[C@@]23CC[C@H]4[C@@](C)(CCC[C@@]4(C)C(=O)O[C@@H]4O[C@H](CO)[C@@H](O)[C@H](O)[C@H]4O)[C@@H]2CC[C@]1(O[C@@H]1O[C@H](CO)[C@@H](O)[C@H](O)[C@H]1O)C3 [Rubusoside] | 
 | Suavioside G | sweet taste
 | CC1(C)C(O)CCC2(C)C3CCC4CC3(CCC12)CC4(O)COC1OC(CO)C(O)C(O)C1O (stereo not shown) [Suavioside A] | sweet taste
 | Suavioside H | sweet taste
 | C[C@@H]1CC[C@]2(C(=O)O[C@@H]3O[C@H](CO)[C@@H](O)[C@H](O)[C@H]3O)CC[C@]3(C)C(=CC[C@@H]4[C@@]5(C)C[C@@H](O)[C@H](O)[C@@](C)(CO)[C@@H]5CC[C@]43C)[C@@H]2[C@]1(C)O [Nigaichigoside F1] | bitter taste
 | Suavioside E | tasteless
 | Suavioside F | bitter taste
 | Suavioside D1 | tasteless
 | Suavioside C1 | bitter taste
